Patent US10221177B2 (HYDRA BIOSCIENCES, INC., priority 2014, dated 2019)

Target: human TRPA1 (Homo sapiens (Human), UniProt O75762)
Experiment: In vitro inhibition of human TRPA1, whole cell patch configuration
Format: cell-based
Settings: current activation 10 μM AITC, tested concentrations 320 pM to 3.2 μM, read-out: hTRPA1 IC50
Method in brief: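 Whole-cell patch clamp, bath 150 mM NaCl, 10 mM HEPES, 1 mM EGTA, 3 mM MgCl2, pH 7.4 (sometimes 2 mM CaCl2, 1 mM MgCl2). Currents recorded continuously at −60 mV or by 400 ms ramps from −40 mV holding every 4 s; inward/outward currents taken at −80/80 mV, with controlled-temperature focal perfusion.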

human TRPA1, sequence (O75762 whole entry): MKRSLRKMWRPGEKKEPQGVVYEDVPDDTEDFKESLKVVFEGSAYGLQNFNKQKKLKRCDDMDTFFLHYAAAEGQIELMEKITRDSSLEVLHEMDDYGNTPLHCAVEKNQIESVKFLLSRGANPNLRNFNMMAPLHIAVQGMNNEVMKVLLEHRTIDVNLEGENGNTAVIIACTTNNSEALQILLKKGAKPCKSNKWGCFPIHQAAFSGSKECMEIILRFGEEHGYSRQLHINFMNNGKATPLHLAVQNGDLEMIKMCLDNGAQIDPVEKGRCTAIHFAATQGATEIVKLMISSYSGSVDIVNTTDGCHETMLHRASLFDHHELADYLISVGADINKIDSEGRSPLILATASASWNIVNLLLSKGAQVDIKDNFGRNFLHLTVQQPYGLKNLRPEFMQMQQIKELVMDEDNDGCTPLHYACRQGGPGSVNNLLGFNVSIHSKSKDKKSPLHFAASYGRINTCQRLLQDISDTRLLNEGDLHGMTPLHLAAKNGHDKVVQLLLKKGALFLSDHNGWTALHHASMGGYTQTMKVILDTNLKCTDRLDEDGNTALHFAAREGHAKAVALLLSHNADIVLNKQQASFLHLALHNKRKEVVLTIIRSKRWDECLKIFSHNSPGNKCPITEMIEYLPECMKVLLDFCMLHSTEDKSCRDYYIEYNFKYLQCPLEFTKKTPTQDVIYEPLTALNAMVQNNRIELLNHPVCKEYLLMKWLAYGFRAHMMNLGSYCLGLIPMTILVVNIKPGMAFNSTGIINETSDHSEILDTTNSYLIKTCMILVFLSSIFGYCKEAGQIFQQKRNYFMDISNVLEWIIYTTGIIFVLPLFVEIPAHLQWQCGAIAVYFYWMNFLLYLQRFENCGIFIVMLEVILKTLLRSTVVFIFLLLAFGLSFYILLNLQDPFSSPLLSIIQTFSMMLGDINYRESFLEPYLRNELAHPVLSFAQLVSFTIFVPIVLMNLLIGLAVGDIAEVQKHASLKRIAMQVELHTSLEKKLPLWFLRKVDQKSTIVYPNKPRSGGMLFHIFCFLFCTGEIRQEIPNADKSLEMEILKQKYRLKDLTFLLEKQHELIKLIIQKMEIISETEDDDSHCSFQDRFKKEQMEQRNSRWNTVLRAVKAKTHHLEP

| Structure (SMILES) | IC50 [nM] |
| --- | --- |
| CC(=O)Cn1c(=O)c2c(ncn2CC(=O)Nc2cccc(-c3ccc(Cl)cc3)n2)n(C)c1=O [Compound 181, N-(6-(4-chlorophenyl)pyridin-2-yl)-2-(3-methyl-2,6-dioxo-1-(2-oxopropyl)-1,2,3,6-tetrahydropurin-7-yl)acetamide] | 19 |
| CC(=O)Cn1c(=O)c2c(ncn2CC(=O)Nc2cccc(-c3ccc(F)c(F)c3)n2)n(C)c1=O [Compound 182, N-(6-(3,4-difluorophenyl)pyridin-2-yl)-2-(3-methyl-2,6-dioxo-1-(2-oxopropyl)-1,2,3,6-tetrahydropurin-7-yl)acetamide] | 42 |
| CC(=O)Cn1c(=O)c2c(ncn2CC(=O)Nc2cccc(-c3cnc(N4CCC[C@H]4C(F)(F)F)nc3)n2)n(C)c1=O [Compound 183, (S)-2-(3-methyl-2,6-dioxo-1-(2-oxopropyl)-1,2,3,6-tetrahydropurin-7-yl)-N-(6-(2-(2-(trifluoromethyl)pyrrolidin-1-yl)pyrimidin-5-yl)pyridin-2-yl)acetamide] | 3 |
| CC(O)Cn1c(=O)c2c(ncn2CC(=O)Nc2cccc(-c3cnc(N4CCC[C@H]4C(F)(F)F)nc3)n2)n(C)c1=O (stereo partly drawn) [Compound 184, 2-(1-(2-hydroxypropyl)-3-methyl-2,6-dioxo-1,2,3,6-tetrahydropurin-7-yl)-N-(6-(2-((S)-2-(trifluoromethyl)pyrrolidin-1-yl)pyrimidin-5-yl)pyridin-2-yl)acetamide] | 310 |
| Cn1c(=O)n(Cc2ccccn2)c(=O)c2c1ncn2CC(=O)Nc1csc(-c2ccc(Cl)cc2)n1 [Compound 190] | 17 |
| CC(=O)Cn1c(=O)c2c(nc(C)n2CC(=O)Nc2cccc(-c3ccc(Cl)cc3)n2)n(C)c1=O [Compound 192, N-(6-(4-chlorophenyl)pyridin-2-yl)-2-(3,8-dimethyl-2,6-dioxo-1-(2-oxopropyl)-1,2,3,6-tetrahydropurin-7-yl)acetamide] | 33 |
| Cc1cc(Cn2c(=O)c3c(ncn3CC(=O)Nc3cccc(N4CCC(F)(F)CC4)n3)n(C)c2=O)no1 [Compound 196, N-(6-(4,4-difluoropiperidin-1-yl)pyridin-2-yl)-2-(3-methyl-1-((5-methylisoxazol-3-yl)methyl)-2,6-dioxo-2,3-dihydro-1H-purin-7(6H)-yl)acetamide] | 122 |
| Cc1cc(Cn2c(=O)c3c(ncn3CC(=O)Nc3ccc(Br)c(C(F)(F)F)n3)n(C)c2=O)no1 [Compound 200, N-(5-bromo-6-(trifluoromethyl)pyridin-2-yl)-2-(3-methyl-1-((5-methyl-isoxazol-3-yl)methyl)-2,6-dioxo-2,3-dihydro-1H-purin-7(6H)-yl)acetamide] | 34 |
| Cc1cc(Cn2c(=O)c3c(ncn3CC(=O)Nc3ccc(C#N)c(C(F)(F)F)n3)n(C)c2=O)no1 [Compound 201, N-(5-cyano-6-(trifluoromethyl)pyridin-2-yl)-2-(3-methyl-1-((5-methylisoxazol-3-yl)methyl)-2,6-dioxo-2,3-dihydro-1H-purin-7(6H)-yl)acetamide] | 309 |

The next lines start with the values.

| IC50 [nM] | Structure (SMILES) |
| --- | --- |
| 45 | CC(=O)Cn1c(=O)c2c(ncn2CC(=O)Nc2cccc(-c3cnc(C(F)(F)F)nc3)n2)n(C)c1=O [Compound 185, 2-(3-methyl-2,6-dioxo-1-(2-oxopropyl)-2,3-dihydro-1H-purin-7(6H)-yl)-N-(6-(2-(trifluoromethyl)pyrimidin-5-yl)pyridin-2-yl)acetamide] |
| 74 | Cn1c(=O)n(Cc2ccccn2)c(=O)c2c1ncn2CC(=O)Nc1cccc(-c2cnc(C(F)(F)F)nc2)n1 [Compound 186, 2-(3-methyl-2,6-dioxo-1-(pyridin-2-ylmethyl)-2,3-dihydro-1H-purin-7(6H)-yl)-N-(6-(2-(trifluoromethyl)pyrimidin-5-yl)pyridin-2-yl)acetamide] |
| 74 | Cn1c(=O)n(Cc2ccccn2)c(=O)c2c1ncn2CC(=O)Nc1cccc(-c2ccc(F)c(F)c2)n1 [Compound 187, N-(6-(3,4-difluorophenyl)pyridin-2-yl)-2-(3-methyl-2,6-dioxo-1-(pyridin-2-ylmethyl)-2,3-dihydro-1H-purin-7(6H)-yl)acetamide] |
| 33 | Cn1c(=O)n(Cc2ccccn2)c(=O)c2c1ncn2CC(=O)Nc1cccc(-c2ccc(Cl)cc2)n1 [Compound 188, N-(6-(4-chlorophenyl)pyridin-2-yl)-2-(3-methyl-2,6-dioxo-1-(pyridin-2-ylmethyl)-2,3-dihydro-1H-purin-7(6H)-yl)acetamide] |
| 2 | Cn1c(=O)n(Cc2ccccn2)c(=O)c2c1ncn2CC(=O)Nc1cccc(-c2cnc(N3CCC[C@H]3C(F)(F)F)nc2)n1 [Compound 189, (S)-2-(3-methyl-2,6-dioxo-1-(pyridin-2-ylmethyl)-2,3-dihydro-1H-purin-7(6H)-yl)-N-(6-(2-(2-(trifluoromethyl)pyrrolidin-1-yl)pyrimidin-5-yl)pyridin-2-yl)acetamide] |
| 51 | Cn1c(=O)n(Cc2ccccn2)c(=O)c2c1ncn2CC(=O)Nc1csc(-c2cnc(C(F)(F)F)nc2)n1 [Compound 191, 2-(3-methyl-2,6-dioxo-1-(pyridin-2-ylmethyl)-2,3-dihydro-1H-purin-7(6H)-yl)-N-(2-(2-(trifluoromethyl)pyrimidin-5-yl)thiazol-4-yl)acetamide] |
| 45 | CC(=O)Cn1c(=O)c2c(nc(C)n2CC(=O)Nc2cccc(-c3ccc(F)c(F)c3)n2)n(C)c1=O [Compound 193, N-(6-(3,4-difluorophenyl)pyridin-2-yl)-2-(3,8-dimethyl-2,6-dioxo-1-(2-oxopropyl)-1,2,3,6-tetrahydropurin-7-yl)acetamide] |
| 62 | CC(=O)Cn1c(=O)c2c(nc(C)n2CC(=O)Nc2cccc(-c3cnc(C(F)(F)F)nc3)n2)n(C)c1=O [Compound 194, 2-(3,8-dimethyl-2,6-dioxo-1-(2-oxopropyl)-1,2,3,6-tetrahydropurin-7-yl)-N-(6-(2-(trifluo-romethyl)pyrimidin-5-yl)pyridin-2-yl)acetamide] |
| 3 | CC(=O)Cn1c(=O)c2c(nc(C)n2CC(=O)Nc2cccc(-c3cnc(N4CCC[C@H]4C(F)(F)F)nc3)n2)n(C)c1=O [Compound 195] |
| 294 | Cc1cc(Cn2c(=O)c3c(ncn3CC(=O)Nc3cccc(N4CC(F)(F)C4)n3)n(C)c2=O)no1 [Compound 197, N-(6-(3,3-difluoroazetidin-1-yl)pyridin-2-yl)-2-(3-methyl-1-((5-methylisoxazol-3-yl)methyl)-2,6-dioxo-2,3-dihydro-1H-purin-7(6H)-yl)acetamide] |
| 404 | Cc1cc(Cn2c(=O)c3c(ncn3CC(=O)Nc3ccc4ccccc4n3)n(C)c2=O)no1 [Compound 199, 2-(3-Methyl-1-((5-methylisoxazol-3-yl)methyl)-2,6-dioxo-2,3-dihydro-1H-purin-7(6H)-yl)-N-(quinolin-2-yl)acetamide] |
| 26 | Cc1cc(Cn2c(=O)c3c(ncn3CC(=O)Nc3cccc(N4CCC(C(F)(F)F)CC4)n3)n(C)c2=O)no1 [Compound 202, 2-(3-methyl-1-((5-methylisoxazol-3-yl)methyl)-2,6-dioxo-2,3-dihydro-1H-purin-7(6H)-yl)-N-(6-(4-(trifluoromethyl)piperidin-1-yl)pyridin-2-yl)acetamide] |
| 1610 | CCc1cc(NC(=O)Cn2cnc3c2c(=O)n(Cc2cc(C)on2)c(=O)n3C)nc(C(F)(F)F)c1 [Compound 203, N-(4-ethyl-6-(trifluoromethyl)pyridin-2-yl)-2-(3-methyl-1-((5-methylisoxazol-3-yl)methyl)-2,6-dioxo-2,3-dihydro-1H-purin-7(6H)-yl)acetamide] |
